According to PMC13159774, “Functional Characterization of the Cat and Dog Wild‐Type and Mutant MDR1 Carrier Proteins and Frequency of the MDR1 Gene Mutation in 800 Cats From Germany” (Journal of Veterinary Pharmacology and Therapeutics, 2025):
pIC50, pKi: −log10 of the molar value. Several values for one entry are separate records, joined by “and”; a condition that tells them apart may be missing. Equal entries are not always repeated. Entries after “also recorded” stand apart in the source; their conditions may differ. Where two headings read alike, the source gives them in different places.

Assays:
[1] = biological target: dog MDR1 wt (canine MDR1 carrier) (Canis lupus familiaris, UniProt Q4PLA8); test: Rh123 efflux inhibition (IC50) in stably transfected MDR1-HEK293 cells, dog MDR1 wt; conditions: for pIC50: IC50, inhibition of Rh123 efflux, dog MDR1 wt, 5 μM Rh123, HEK293 after tetracycline treatment, one value per independent experiment (two experiments)
dog MDR1 wt (canine MDR1 carrier), sequence (Q4PLA8 entry or part of it): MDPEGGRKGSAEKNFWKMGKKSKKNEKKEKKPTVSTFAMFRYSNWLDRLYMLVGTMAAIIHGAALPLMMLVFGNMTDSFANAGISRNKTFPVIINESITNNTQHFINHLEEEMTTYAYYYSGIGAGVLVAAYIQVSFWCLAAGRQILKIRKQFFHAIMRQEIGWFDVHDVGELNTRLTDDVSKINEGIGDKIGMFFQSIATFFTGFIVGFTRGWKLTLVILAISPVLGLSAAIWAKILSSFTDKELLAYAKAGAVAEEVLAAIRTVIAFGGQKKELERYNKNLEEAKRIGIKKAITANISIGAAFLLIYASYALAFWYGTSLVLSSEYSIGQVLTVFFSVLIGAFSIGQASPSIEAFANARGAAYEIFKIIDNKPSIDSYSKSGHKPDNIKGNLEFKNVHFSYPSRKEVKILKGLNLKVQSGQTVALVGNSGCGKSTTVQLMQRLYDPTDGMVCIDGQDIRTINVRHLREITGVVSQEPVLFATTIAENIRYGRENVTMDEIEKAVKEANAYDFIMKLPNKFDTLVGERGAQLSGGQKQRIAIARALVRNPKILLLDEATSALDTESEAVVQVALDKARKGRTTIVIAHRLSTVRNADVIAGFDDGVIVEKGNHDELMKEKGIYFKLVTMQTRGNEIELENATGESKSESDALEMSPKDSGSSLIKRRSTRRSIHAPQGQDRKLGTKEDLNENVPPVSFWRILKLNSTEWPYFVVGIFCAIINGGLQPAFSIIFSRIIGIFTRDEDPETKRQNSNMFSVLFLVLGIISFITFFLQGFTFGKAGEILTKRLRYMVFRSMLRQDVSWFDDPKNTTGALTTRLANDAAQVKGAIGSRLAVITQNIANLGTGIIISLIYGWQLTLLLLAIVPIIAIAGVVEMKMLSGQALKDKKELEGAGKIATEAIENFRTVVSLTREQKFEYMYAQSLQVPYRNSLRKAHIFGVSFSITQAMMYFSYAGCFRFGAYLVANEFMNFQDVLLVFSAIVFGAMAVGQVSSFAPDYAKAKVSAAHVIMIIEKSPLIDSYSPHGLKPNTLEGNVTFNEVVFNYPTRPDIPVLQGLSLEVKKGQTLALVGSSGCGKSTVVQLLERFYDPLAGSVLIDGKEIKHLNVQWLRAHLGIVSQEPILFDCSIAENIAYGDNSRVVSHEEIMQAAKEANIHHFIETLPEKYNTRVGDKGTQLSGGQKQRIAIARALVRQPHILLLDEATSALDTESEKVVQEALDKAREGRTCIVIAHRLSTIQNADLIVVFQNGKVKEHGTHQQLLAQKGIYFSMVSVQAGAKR
Procedure: (§1) Transport inhibition experiments were performed with 5 μM Rh123 as the probe substrate in stably transfected MDR1‐HEK293 cells. Cells were seeded onto polylysine‐coated 96‐well plates and gene expression was induced with tetracycline treatment at 1 μg/mL. […] Subsequently, the PBS was replaced with 80 μL of transport buffer again containing the respective inhibitor or solvent alone, and cells were further incubated for 60 min at 37°C for the efflux phase.
(§2) All graphs and diagrams were generated with GraphPad Prism 6 (GraphPad Software Inc., San Diego, CA, USA). The IC50 values were determined by nonlinear regression analysis using the equation log (inhibitor) versus response—variable slope settings. Statistical analyses were performed using GraphPad Prism 6. As detailed in the figure legends, either Student's t‐test or two‐way ANOVA was applied, as appropriate.

[2] = biological target: cat MDR1 wt (feline MDR1 carrier) (Felis catus, UniProt D2KKF0); test: Rh123 efflux inhibition (IC50) in stably transfected MDR1-HEK293 cells, cat MDR1 wt; conditions: IC50, inhibition of Rh123 efflux, 5 μM Rh123, HEK293 after tetracycline treatment, one value per independent experiment (two experiments)
cat MDR1 wt (feline MDR1 carrier), sequence (D2KKF0 entry or part of it): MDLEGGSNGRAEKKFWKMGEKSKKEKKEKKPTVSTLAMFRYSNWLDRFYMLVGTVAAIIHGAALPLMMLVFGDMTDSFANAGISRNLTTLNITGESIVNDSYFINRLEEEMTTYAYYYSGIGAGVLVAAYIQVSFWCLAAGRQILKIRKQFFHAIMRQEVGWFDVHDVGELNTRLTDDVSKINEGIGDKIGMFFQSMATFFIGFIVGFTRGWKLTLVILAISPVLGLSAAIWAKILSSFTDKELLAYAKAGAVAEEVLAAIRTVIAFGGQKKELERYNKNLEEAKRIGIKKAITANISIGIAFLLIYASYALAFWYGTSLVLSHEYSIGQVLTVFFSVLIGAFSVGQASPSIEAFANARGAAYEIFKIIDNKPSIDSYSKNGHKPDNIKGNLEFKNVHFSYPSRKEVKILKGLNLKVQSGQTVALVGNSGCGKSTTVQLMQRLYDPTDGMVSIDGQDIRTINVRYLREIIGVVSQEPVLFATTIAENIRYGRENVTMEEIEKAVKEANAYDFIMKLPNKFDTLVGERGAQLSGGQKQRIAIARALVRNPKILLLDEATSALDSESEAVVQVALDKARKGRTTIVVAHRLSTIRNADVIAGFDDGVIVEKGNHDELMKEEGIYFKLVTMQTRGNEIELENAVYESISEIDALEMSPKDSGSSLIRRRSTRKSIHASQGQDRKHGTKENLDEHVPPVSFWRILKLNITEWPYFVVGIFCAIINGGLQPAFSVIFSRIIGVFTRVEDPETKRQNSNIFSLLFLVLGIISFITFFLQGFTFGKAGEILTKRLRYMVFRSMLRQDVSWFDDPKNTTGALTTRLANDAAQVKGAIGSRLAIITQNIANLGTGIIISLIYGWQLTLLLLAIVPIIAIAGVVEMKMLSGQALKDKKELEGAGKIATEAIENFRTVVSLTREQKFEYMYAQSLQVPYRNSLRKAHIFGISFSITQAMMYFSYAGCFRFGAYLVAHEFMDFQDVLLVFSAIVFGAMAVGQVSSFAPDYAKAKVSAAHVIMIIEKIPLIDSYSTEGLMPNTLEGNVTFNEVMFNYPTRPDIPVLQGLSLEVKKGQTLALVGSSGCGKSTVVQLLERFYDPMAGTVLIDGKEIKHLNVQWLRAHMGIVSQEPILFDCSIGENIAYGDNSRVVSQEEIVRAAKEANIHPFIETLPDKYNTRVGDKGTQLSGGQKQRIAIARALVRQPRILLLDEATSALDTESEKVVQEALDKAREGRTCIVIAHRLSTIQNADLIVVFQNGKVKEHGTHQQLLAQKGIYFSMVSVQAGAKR
Procedure: as §1, §2

[3] = tested on: wild-type MDR1 (P-glycoprotein) of dog and cat; test: Rh123 efflux inhibition in MDR1-HEK293 cells, stated for both wild-type MDR1 carriers together; conditions: dog and cat, IC50 range, inhibition of both wild-type MDR1 carriers (dog and cat), 5 μM Rh123, HEK293, range over both species and experiments
Procedure: as §1, §2

[4] = tested on: dogs with homozygous MDR1 gene mutation; conditions: cited from earlier work
[5] = tested on: MDR1 carrier (parent MDCKII, dog MDR1 wt and cat MDR1 wt MDCKII^MDR1ko cells); test: Transwell transport experiments in MDCKII cells with Rh123 and [3H]digoxin; assay type: cell-based; conditions: 1 μM TQD
Procedure: For transwell transport experiments in the MDCKII cell lines, 3 × 10^5 cells were seeded per 12‐mm/0.4 μm transwell membrane inserts (Sarstedt, Numbrecht, Germany). One day after seeding, the medium was changed. The transport experiments were performed 72 h after seeding and after reaching 100% confluence. Measurement of the transepithelial electrical resistance (TEER) was conducted on each well with the Millicell ERS‐2 electrical resistance system (Millipore) to confirm the integrity of the monolayer. Only cell monolayers that reached > 150 Ω cm^2 were used for the transport experiments. […] Fluorescence of Rh123 was detected with the GloMax plate reader. […] The amount of [^3H]digoxin in the samples was quantified by Tri‐Carb 2910TR Liquid Scintillation Analyzer (Perkin Elmer).
For all transwell experiments with Rh123 and [^3H]digoxin as the substrates, apparent permeability coefficients (P app, cm/s) and the efflux ratios (ER) were calculated as follows: Papp=V/A×C0×dQ/dt where “V” is the volume of the receiver chamber (1.5 or 0.5 mL), “A” is the surface area of the transwell inserts (being 1.1 cm^2), “C 0” is the initial concentration of the compound, and “dQ/dt” is the transport rate.
From the P app values of the AB and BA transport experiments, the ER was calculated as follows: [drawing 1]

[6] = tested on: cat MDR1 wt; test: Rh123 transport experiment in HEK293 cells with/without tariquidar, cat MDR1 wt; conditions: 1 μM TQD, 5 μM Rh123, HEK293
Procedure: Cells were seeded onto polylysine‐coated 24‐well plates. Gene expression was induced with 1 μg/mL tetracycline treatment. Cells were grown to confluence over 72 h at 37°C. […] After 30 min pre‐incubation, transport experiments were started by replacing the medium with transport buffer additionally containing 5 μM Rh123. The Rh123 uptake was stopped after 90 min by two‐times washing with ice‐cold PBS. Subsequently, the PBS was again replaced with 250 μL of DMEM as the transport buffer, with or without TQD, and the efflux phase lasted over 60 min at 37°C. Then, experiments were stopped by two‐times washing with ice‐cold PBS. Finally, cells were lysed with 500 μL of 1 N NaOH with 0.1% SDS. Cell‐associated fluorescence of Rh123 was quantified by GloMax microplate reader (Promega). Fluorescence was detected at 490 nm excitation and 510–570 nm emission. […] The absolute fluorescence units per well were normalized to the protein amount and expressed as relative fluorescence units (RFU)/μg protein.

[7] = tested on: dog MDR1 wt; test: Rh123 transport experiment in HEK293 cells with/without tariquidar, dog MDR1 wt; assay type: cell-based; conditions: 1 μM TQD, 5 μM Rh123, HEK293
[8] = tested on: wild-type MDR1 carriers of dog and cat; test: Rh123 efflux inhibition in MDR1-HEK293 cells, stated for both wild-type MDR1 carriers together; conditions: analyzed inhibitor concentration range, highest 100 μM
Procedure: as §1, §2

[9] = tested on: MDR1 carrier; parameters: method as in Lespine et al. [2007]; conditions: membrane vesicles from DC-3F-/ADX MDR1-overexpressing cells; ref Lespine et al. [2007]; read-out: Ki, ATPase activity of the MDR1 carrier stimulated by verapamil; cited from earlier work
[10] = stably transfected MDR1-HEK293 cells (tetracycline-induced), probe rhodamine 123 (Rh123), 5 μM

| Compound | pIC50 [1] | pIC50 [2] | IC50 at 60 min [3, 10] | IC50 at 60 min [3] | also measured |
| --- | --- | --- | --- | --- | --- |
| Cc1cc(C2=NO[C@@](c3cc(Cl)c(Cl)c(Cl)c3)(C(F)(F)F)C2)sc1C(=O)NCC(=O)NCC(F)(F)F [lotilaner] | 4.63 and 4.96 | 4.76 and 4.96 | 11 to 23 µM |  |  |
| CO[C@H]1C[C@H](O[C@H]2[C@H](C)O[C@@H](O[C@@H]3/C(C)=C/C[C@@H]4C[C@@H](C[C@]5(C=C[C@H](C)[C@@H](C6CCCCC6)O5)O4)OC(=O)[C@@H]4C=C(C)[C@@H](O)[C@H]5OC/C(=C\C=C\[C@@H]3C)[C@]54O)C[C@@H]2OC)O[C@@H](C)[C@@H]1O [doramectin] |  |  |  |  | Outcome of off-label treatment ([4]; dogs with homozygous MDR1 mutation, 0.6 mg/kg subcutaneous injection, ref Mealey et al. [2001], Hopper et al. [2008], Geyer and Janko [2012]): fatal cases of neurological toxicity |
| COc1cc2c(cc1OC)CN(CCc1ccc(NC(=O)c3cc(OC)c(OC)cc3NC(=O)c3cnc4ccccc4c3)cc1)CC2 [tariquidar] | 7.22 and 6.92 | 6.85 and 6.64 | 0.1 to 0.2 µM |  | Effect on transcellular transport of [3H]digoxin ([5]; 1 μM [3H]digoxin, dog MDR1 wt and cat MDR1 wt cell lines): completely abolished; Effect on transcellular transport of Rh123 ([5]; 5 μM Rh123, dog MDR1 wt and cat MDR1 wt cell lines): completely abolished; Effect on Rh123 efflux activity of wild-type feline MDR1 [6]: TQD‐sensitive reduction in Rh123 accumulation; Effect on Rh123 efflux activity of wild-type canine MDR1 [7]: fully abolished |
| CO/N=C1\C[C@]2(C[C@@H]3C[C@@H](C/C=C(\C)C[C@@H](C)/C=C/C=C4\CO[C@@H]5[C@H](O)C(C)=C[C@@H](C(=O)O3)[C@]45O)O2)O[C@H](/C(C)=C/C(C)C)[C@H]1C [moxidectin] | 4.67 and 4.82 | 5.04 and 5.08 | 8 to 21 µM |  |  |
| C/C=C/C[C@@H](C)C(=O)[C@H]1C(=O)N[C@@H](C(C)C)C(=O)N(C)CC(=O)N(C)[C@@H](CC(C)C)C(=O)N[C@@H](C(C)C)C(=O)N(C)[C@@H](CC(C)C)C(=O)N[C@@H](C)C(=O)N[C@H](C)C(=O)N(C)[C@@H](CC(C)C)C(=O)N(C)[C@@H](CC(C)C)C(=O)N(C)[C@@H](C(C)C)C(=O)N1C [PSC833, valspodar] | 6.18 and 6.02 | 5.82 |  | 1 to 2 µM |  |
| O=C(CNC(=O)c1ccc(C2=NO[C@](c3cc(Cl)cc(C(F)(F)F)c3)(C(F)(F)F)C2)c2ccccc12)NCC(F)(F)F [afoxolaner] |  |  |  |  | Interaction with / inhibition of the MDR1 carriers from either species [8]: no detectable interaction; also recorded: no inhibition; Safety of oral administration ([4]; dogs with homozygous MDR1 gene mutation, monotherapy or in combination with milbemycin oxime, ref Drag et al. [2022]): safe |
| CO[C@H]1C[C@H](O[C@@H]2/C(C)=C/C[C@@H]3C[C@@H](C[C@]4(CC[C@H](C)[C@@H](C5CCCCC5)O4)O3)OC(=O)[C@@H]3C=C(C)/C(=N/O)[C@H]4OC/C(=C\C=C\[C@@H]2C)[C@]43O)O[C@@H](C)[C@@H]1O [selamectin] | 4.67 and 4.80 | 4.84 and 4.99 |  | 10 to 22 µM | Oral dose remaining without clinical symptoms of neurological toxicity ([4]; ivermectin-sensitive Collies, oral, ref Geyer and Janko [2012]): exceeding 15 mg/kg; pKi [9]: 6.00 |
| Cc1cc(C2=NO[C@](c3cc(Cl)cc(Cl)c3)(C(F)(F)F)C2)ccc1C(=O)NCC(=O)NCC(F)(F)F [fluralaner] |  | 4.16 and < 4.00 |  |  | Inhibition of the canine MDR1 carrier ([1]; up to the maximum tested concentration of 100 μM): did not inhibit; Safety of oral administration ([4]; Collies with homozygous MDR1 gene mutation, ref Walther et al. [2014]): treatment safety without neurological toxicity |
| CS(=O)(=O)CC(=O)N1CC2(C1)OCc1cc(C3=NO[C@@](c4cc(Cl)c(F)c(Cl)c4)(C(F)(F)F)C3)ccc12 [sarolaner] | 4.38 and 4.52 | 4.25 and 4.45 |  | 30 to 57 µM |  |
